In PubChem BioAssay AID2060506 (Molecular Pharmacology Branch, DTP, NCI, 2025):

System: 598228-144-R-J1-PDC complex spheroid viability
Test: Anticancer human tumor 598228-144-R-J1-PDC patient-derived serous endometrial adenocarcinoma cell line growth inhibition [GQUAD]
Settings: for IC50: curve of first compound; for viability, T/C: stronger effect = lower value
Method in brief: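 Viability of tumor cells grown as complex spheroids with endothelial and stromal cells, exposed to drug combinations. Top concentration at or near clinical Cmax (else 10 microM), diluted in half-log increments.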

[1] = second compound 0.0316 µM, first compound 0.0316 µM
[2] = second compound 0.0316 µM, first compound 0.1 µM
[3] = second compound 0.0316 µM, first compound 0.316 µM
[4] = second compound 0.0316 µM, first compound 1 µM
[5] = second compound 0.0316 µM, first compound 3.16 µM
[6] = second compound 0.0316 µM, first compound 10 µM
[7] = second compound 0.1 µM, first compound 0.0316 µM
[8] = second compound 0.1 µM, first compound 0.1 µM
[9] = second compound 0.1 µM, first compound 0.316 µM
[10] = second compound 0.1 µM, first compound 1 µM
[11] = second compound 0.1 µM, first compound 3.16 µM
[12] = second compound 0.1 µM, first compound 10 µM
[13] = second compound 0.316 µM, first compound 0.0316 µM
[14] = second compound 0.316 µM, first compound 0.1 µM
[15] = second compound 0.316 µM, first compound 0.316 µM
[16] = second compound 0.316 µM, first compound 1 µM
[17] = second compound 0.316 µM, first compound 3.16 µM
[18] = second compound 0.316 µM, first compound 10 µM
[19] = second compound 1 µM, first compound 0.0316 µM
[20] = second compound 1 µM, first compound 0.1 µM
[21] = second compound 1 µM, first compound 0.316 µM
[22] = second compound 1 µM, first compound 1 µM
[23] = second compound 1 µM, first compound 3.16 µM
[24] = second compound 1 µM, first compound 10 µM
[25] = second compound 3.16 µM, first compound 0.0316 µM
[26] = second compound 3.16 µM, first compound 0.1 µM
[27] = second compound 3.16 µM, first compound 0.316 µM
[28] = second compound 3.16 µM, first compound 1 µM
[29] = second compound 3.16 µM, first compound 3.16 µM
[30] = second compound 3.16 µM, first compound 10 µM
[31] = second compound 10 µM, first compound 0.0316 µM
[32] = second compound 10 µM, first compound 0.1 µM
[33] = second compound 10 µM, first compound 0.316 µM
[34] = second compound 10 µM, first compound 1 µM
[35] = second compound 10 µM, first compound 3.16 µM
[36] = second compound 10 µM, first compound 10 µM
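Note: spheroids exposed to the agents for one week before reading.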
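Throughout, for viability, T/C: percent of vehicle DMSO control viability so 100% = untreated growth.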

C=CC(=O)N1CCN(c2nc(=O)n(-c3c(C)ccnc3C(C)C)c3nc(-c4c(O)cccc4F)c(F)cc23)C(C)C1 (stereo unspecified) + Cc1cnc(CNC(=O)c2c(=O)c3ccc(N4CCCN(C)CC4)nc3n3c2sc2ccccc23)cn1
IC50 (second compound 0.0316 µM): > 10000 nM
IC50 (second compound 0.1 µM): > 10000 nM
IC50 (second compound 0.316 µM): > 10000 nM
IC50 (second compound 1 µM): > 10000 nM
IC50 (second compound 3.16 µM): > 10000 nM
IC50 (second compound 10 µM): < 31.6 nM
viability, T/C [1]: 92.7%
viability, T/C [2]: 97.3%
viability, T/C [3]: 91%
viability, T/C [4]: 83.2%
viability, T/C [5]: 102%
viability, T/C [6]: 82.9%
viability, T/C [7]: 80.8%
viability, T/C [8]: 66.3%
viability, T/C [9]: 77.6%
viability, T/C [10]: 81.7%
viability, T/C [11]: 86.4%
viability, T/C [12]: 80.4%
viability, T/C [13]: 89.3%
viability, T/C [14]: 55.1%
viability, T/C [15]: 62.6%
viability, T/C [16]: 73.3%
viability, T/C [17]: 80.6%
viability, T/C [18]: 64.1%
viability, T/C [19]: 65.1%
viability, T/C [20]: 74.9%
viability, T/C [21]: 58.2%
viability, T/C [22]: 83%
viability, T/C [23]: 77.6%
viability, T/C [24]: 79.8%
viability, T/C [25]: 69%
viability, T/C [26]: 60.4%
viability, T/C [27]: 60.1%
viability, T/C [28]: 55.4%
viability, T/C [29]: 63.3%
viability, T/C [30]: 54%
viability, T/C [31]: 48.1%
viability, T/C [32]: 36%
viability, T/C [33]: 60.9%
viability, T/C [34]: 50.9%
viability, T/C [35]: 51.5%
viability, T/C [36]: 5.43%

Cc1[nH]c2ccccc2c1CCNCc1ccc(/C=C/C(=O)NO)cc1 + Cc1[nH]c2ccc(F)cc2c1-c1nc2c3cccnc3c3ncccc3c2[nH]1
IC50 (second compound 0.0316 µM): 62.9 nM
IC50 (second compound 0.1 µM): 63 nM
IC50 (second compound 0.316 µM): 58 nM
IC50 (second compound 1 µM): 23.9 nM
IC50 (second compound 3.16 µM): < 0.999 nM
IC50 (second compound 10 µM): 39.1 nM
viability, T/C (second compound 0.0316 µM, first compound 0.000999 µM): 110%
viability, T/C (second compound 0.0316 µM, first compound 0.00316 µM): 115%
viability, T/C (second compound 0.0316 µM, first compound 0.00999 µM): 131%
viability, T/C [1]: 82.5%
viability, T/C (second compound 0.0316 µM, first compound 0.0999 µM): 28%
viability, T/C [3]: 0.83%
viability, T/C (second compound 0.1 µM, first compound 0.000999 µM): 111%
viability, T/C (second compound 0.1 µM, first compound 0.00316 µM): 108%
viability, T/C (second compound 0.1 µM, first compound 0.00999 µM): 103%
viability, T/C [7]: 77.8%
viability, T/C (second compound 0.1 µM, first compound 0.0999 µM): 31.4%
viability, T/C [9]: 1.46%
viability, T/C (second compound 0.316 µM, first compound 0.000999 µM): 107%
viability, T/C (second compound 0.316 µM, first compound 0.00316 µM): 108%
viability, T/C (second compound 0.316 µM, first compound 0.00999 µM): 90.2%
viability, T/C [13]: 73.5%
viability, T/C (second compound 0.316 µM, first compound 0.0999 µM): 30.1%
viability, T/C [15]: 0.7%
viability, T/C (second compound 1 µM, first compound 0.000999 µM): 71.8%
viability, T/C (second compound 1 µM, first compound 0.00316 µM): 58%
viability, T/C (second compound 1 µM, first compound 0.00999 µM): 62.6%
viability, T/C [19]: 47.1%
viability, T/C (second compound 1 µM, first compound 0.0999 µM): 22.4%
viability, T/C [21]: 0.79%
viability, T/C (second compound 3.16 µM, first compound 0.000999 µM): 32.2%
viability, T/C (second compound 3.16 µM, first compound 0.00316 µM): 32.8%
viability, T/C (second compound 3.16 µM, first compound 0.00999 µM): 41.1%
viability, T/C [25]: 32.7%
viability, T/C (second compound 3.16 µM, first compound 0.0999 µM): 25.1%
viability, T/C [27]: 0.97%
viability, T/C (second compound 10 µM, first compound 0.000999 µM): 84.1%
viability, T/C (second compound 10 µM, first compound 0.00316 µM): 64.8%
viability, T/C (second compound 10 µM, first compound 0.00999 µM): 79.1%
viability, T/C [31]: 48.3%
viability, T/C (second compound 10 µM, first compound 0.0999 µM): 33.6%
viability, T/C [33]: 0.53%

COc1ccc([C@@H](O)c2cc(-c3ncnc4cc(N5CCOCC5)ccc34)c(F)cc2Cl)nn1 + Cc1cnc(CNC(=O)c2c(=O)c3ccc(N4CCCN(C)CC4)nc3n3c2sc2ccccc23)cn1
IC50 (second compound 0.0316 µM): 2710 nM
IC50 (second compound 0.1 µM): 1440 nM
IC50 (second compound 0.316 µM): 1040 nM
IC50 (second compound 1 µM): 794 nM
IC50 (second compound 3.16 µM): < 31.6 nM
IC50 (second compound 10 µM): < 31.6 nM
viability, T/C [1]: 105%
viability, T/C [2]: 80.9%
viability, T/C [3]: 66.6%
viability, T/C [4]: 66.5%
viability, T/C [5]: 52.3%
viability, T/C [6]: 33.9%
viability, T/C [7]: 67%
viability, T/C [8]: 70.4%
viability, T/C [9]: 64.3%
viability, T/C [10]: 51.7%
viability, T/C [11]: 43.5%
viability, T/C [12]: 33%
viability, T/C [13]: 63.2%
viability, T/C [14]: 63.5%
viability, T/C [15]: 62.7%
viability, T/C [16]: 49.1%
viability, T/C [17]: 35.3%
viability, T/C [18]: 25.5%
viability, T/C [19]: 65.9%
viability, T/C [20]: 61.6%
viability, T/C [21]: 51.6%
viability, T/C [22]: 46.1%
viability, T/C [23]: 42%
viability, T/C [24]: 14.2%
viability, T/C [25]: 50%
viability, T/C [26]: 36.8%
viability, T/C [27]: 41.9%
viability, T/C [28]: 31.6%
viability, T/C [29]: 20.9%
viability, T/C [30]: 0.39%
viability, T/C [31]: 35.2%
viability, T/C [32]: 40.2%
viability, T/C [33]: 19.1%
viability, T/C [34]: 0.71%
viability, T/C [35]: 0.33%
viability, T/C [36]: 0.26%
